Results as given in patent publication US20090162911A1 (priority 2007, published 2009).
Like-named read-outs stand apart in the source and are kept apart here.

Experiments:
[1] = system: acrA insertion strain JW0452; format: cell-based, E. coli; settings: for improved growth over the parental strain: acrA modified strain, 3 hr exposure, LB 37° C.; for tolerance of mutant relative to parent strain: acrA mutant JW0452, FIG. 8
Experimental: (§1) Strains of E. coli K12 EC100 having insertions in either the acrA or acrB coding regions, JW0452 and JW0451 respectively, were obtained from the Keio knockout collection described in Example 4. Growth of these strains was compared in the presence of 2-butanol and isobutanol in relation to the parental strain EC100. Overnight cultures were inoculated with a fresh colony and grown in LB at 37° C. with shaking. The next day the culture was diluted 1:100 into 100 ml of fresh LB in a 1 liter flask and grown for approximately 2 hours. The culture was split into 20 ml aliquots in 125 ml plastic screw top flasks. One culture remained unaltered serving as the no add control, and various concentrations of either 2-butanol or isobutanol were added to the remaining flasks. Absorbance (OD600) was monitored over time. Fractional growth yields were determined after 3 hr of exposure and percent improvement was calculated by subtracting the […] and multiplying by 100.

[2] = system: acrB insertion strain JW0451; format: cell-based, E. coli; settings: for improved growth over the parental strain: acrB modified strain, 3 hr exposure, LB 37° C.; for tolerance of mutant relative to parent strain: acrB mutant JW0451, FIG. 8
Experimental: as §1

[3] = system: tolC transposon insertion mutant JW5503; experiment: Shake flask growth of tolC insertion mutant compared with parental strain; format: cell-based, E. coli
Experimental: as §1
In addition, a to/C transposon insertion mutant of the Keio collection, JW5503, was also assayed.

[4] = system: acrB transposon mutant line DPD1852; format: cell-based, E. coli; settings: acrB mutation, 18 hr exposure, FIG. 7
Experimental: Growth of the acrB transposon mutant line, DPD1852 (in Example 2), and the parental strain EC100 were compared in the presence of different butanols. Cultures were grown in LB medium at 37° C. to mid-logarithmic phase and then 200 μl was put into microtiter wells of a Bioscreen device that monitors optical density as a function of time. Triplicate wells contained a culture challenged with a specified concentration of a compound. For 2- and isobutanol the concentrations tested were 0, 0.8, 1.2, 1.4, and 1.6% weight percent. For 1-butanol the concentrations were 0, 0.2, 0.3, 0.4, and 0.6% w/v. For 2-butanone (MEK, methylethylketone) the concentrations were 0, 2.5, 3, 3.5 and 4% w/v.

[5] = system: acrB transposition mutant strain DPD1852; settings: LB with 0.2%, 0.3%, 0.4% or 0.6% 1-butanol (w/v), FIG. 3
Experimental: Overnight triplicate cultures of each strain were grown and diluted (1:10) into either LB or LB freshly supplemented with 0.2%, 0.3%. 0.4% or 0.6% 1-butanol (w/v). The growth of each culture was followed for approximately 18 hours.
An additional kinetic growth study was performed as described above.

[6] = system: acrB deletion line DPD1876; settings: acrB mutant, 0.4 and 0.6% 1-butanol, 18 hr, FIG. 6
Experimental: (§2) Shake flask experiments were performed on the acrB rpoZ::kan constructed double mutant line DPD1899, as well as the acrB deletion line DPD1876, the rpoZ::kan line JW3624, and the wild type control BW25113 line. Cultures were grown in LB medium containing 0%, 0.4% or 0.6% 1-butanol in shake flasks. The experiments were performed by inoculating 100 ml of medium in a 250 ml plastic flask with 2 ml of an overnight culture grown from a single colony grown at 37° C. and incubating with shaking for approximately two doubling times (1 hour), to an OD600 between 0.2 and 0.3. Each culture was split into […] in plastic screw top 125 ml flasks and the cultures were maintained at 37° C. in a shaking water bath at 200 rpm. The OD600 was monitored at 0, 30, 90, 120 190, and 260 minutes.
(§3) In the cultures above, a final time point was taken at 18 hr and used to calculate growth yield as a function of 1-butanol challenge. For each line grown in 0, 0.4% or 0.6% 1-butanol, the final 18 hour time point was divided by the no 1-butanol 18 hr time point.

[7] = system: acrB rpoZ::kan double mutant line DPD1899; settings: 0.4 and 0.6% 1-butanol, 18 hr, FIG. 6
Experimental: as §2, §3

rpoZ::kan line JW3624 = settings: rpoZ mutant, 0.4 and 0.6% 1-butanol, 18 hr, FIG. 6
Experimental: as §2, §3

[8] = system: wild type control BW25113; settings: wild type cells, 0.4 and 0.6% 1-butanol, 18 hr, FIG. 6
Experimental: as §2, §3

E. coli strain EC100 = settings: EC100 on solidified LB
Experimental: LB agar media supplemented with butanol was prepared fresh one day before innoculating at an appropriate volume and cooled for 2 hours in a 50° C. water bath. LB agar plates supplemented with butanol were prepared by dispensing 67 mls of melted agar, using a peristaltic pump and sterile Nalgene tubing, into sterile Omni trays with lids (Nunc mfg no. 242811). […] The plates were allowed to cool and set for approximately an hour before they were stored overnight in closed anaerobic chambers at room temperature in the chemical/biological hood. The next morning, the chambers harboring the plates were opened and allowed to air dry for approximately 1 hour before using.
Plates were incubated in a closed chamber at 37° C. for 1 day. The number of colonies arising and their sizes were scored. […] Butanol concentrations of 0.4% and 0.6% were chosen to screen for tolerance.

CC(C)CO [isobutanol]
improved growth over the parental strain ([1]; 0.4% of the compound): about 18%
improved growth over the parental strain ([1]; 0.6% of the compound): about 3.5%
tolerance of mutant relative to parent strain [1]: more tolerant
improved growth over the parental strain ([2]; 0.4% of the compound): about 20%
improved growth over the parental strain ([2]; 0.6% of the compound): about 2.5%
tolerance of mutant relative to parent strain [2]: more tolerant
growth response relative to parental strain [3]: indistinguishable from the parental strain
tolerance (growth improvement over parental EC100) [4]: improved the tolerance

CCCCO [1-butanol]
tolerance in terms of growth rate relative to wild type EC100 [5]: more tolerant to all of the concentrations of 1-butanol tested than the wild type strain
tolerance (growth improvement over parental EC100) [4]: improved the tolerance
growth yield (fractional growth) [6]: higher growth yields than wild type
growth yield (fractional growth) [7]: even higher growth yield
growth yield (fractional growth) (rpoZ::kan line JW3624): higher growth yields than wild type
sensitivity to growth inhibition (fractional growth) [8]: most sensitive to growth inhibition
colony size (E. coli strain EC100; 0.6% 1-butanol, 37° C., 1 day): only pinpoint colonies
concentration with no colony formation after overnight incubation (E. coli strain EC100; 37° C.): ≥ 0.7 % (w/v)
concentration from which colonies were progressively smaller (E. coli strain EC100; closed chamber, 37° C., 1 day): ≥ 0.2%
titer (number of colonies arising) (E. coli strain EC100; range of 0 to 0.6% 1-butanol): No change in titer

CCC(C)=O [MEK, 2-butanone]
tolerance (growth improvement over parental EC100) [4]: improved the tolerance

CCC(C)O (stereo not drawn) [2-butanol]
improved growth over the parental strain ([1]; 0.6% of the compound): about 12%
improved growth over the parental strain ([1]; 0.8% of the compound): about 5%
tolerance of mutant relative to parent strain [1]: more tolerant
improved growth over the parental strain ([2]; 0.6% of the compound): about 24%
improved growth over the parental strain ([2]; 0.8% of the compound): about 12%
tolerance of mutant relative to parent strain [2]: more tolerant
growth response relative to parental strain [3]: indistinguishable from the parental strain
tolerance (growth improvement over parental EC100) [4]: improved the tolerance
